# pIC50: −log10 of the molar value. Like-named read-outs stand apart in the source and are kept apart here.
# Test system: GROα-induced expression of the integrin CD11b on neutrophils in human whole blood
# Assay: CD11b human whole blood assay
# Format: cell-based
# Conditions: Neutrophil, 10 nM GROα
# Protocol: The compounds indicated were tested for their ability to inhibit the GROα-induced expression of the integrin CD11b on neutrophils in human whole blood.
# Blood was drawn (9 ml) using a butterfly line and a 10 ml syringe containing 0.2 ml of working Sodium Heparin. The blood was kept at 37° C. until placed on ice in step 5 below. Compound stock solutions were then diluted to 12 times the maximum final concentration, 120 uM. Half Log serial dilutions were then performed in vehicle. Ten microliters of the compound dilutions or vehicle were then added to the appropriate 12×75 polypropylene tubes. One hundred microliters of whole blood was added per tube and incubated for 10 minutes, in a 37° C. water bath with initial (gentle) agitation and again at 5 minutes. The GROα stock was diluted 1:166.66 in 0.1% BSA-DPBS to “12×” concentration of 120 nM and 10 ul of the GROα dilution or 01% BSA-DPBS was added to the appropriate tubes so that the final GROα concentration equaled 10 nM. The tubes were incubated for 10 min at 37° C. with gentle hand agitation and again at 5 minutes. Samples were then placed on ice and 250 ul of ice cold CellFix working dilution was added followed by a one minute incubation on ice. 1.5 ml Eppendorf tubes were readied during GROα incubation by adding the appropriate antibodies. Every tube received 10 ul of CD11b-FITC and 5 ul of CD16-PE, except for the isotype control which received 10 ul of IgG2a-FITC instead of CD11b. Addition of 50 ul of the fixed blood from each tube was added to the appropriate Eppendorf tube. Samples were allowed to then incubate for 20 min at 4° C. in the dark. Addition of the blood/antibody mixtures to 500 ul of cold DPBS were added to the appropriately labeled 12×75 polystyrene tube. The resulting mixture was kept on ice. LDS stock (10 ul) was added and the mixture was incubated for 10 min at 4° C. before flow analysis. Samples were kept in a darkened environment. The LDS addition was staggered as the samples were collected on the flow cytometer so that all samples were run ˜10-20 minutes post-LDS addition.
# Medium flow rate was used for flow collection and FL3 threshold increased to eliminate red blood cells from analysis using the LDS signal. The color compensation was properly set using unlabeled samples and one-color samples to subtract LDS spill into PE and the PE spill into FITC and FITC into PE. For the BD LSR cytometer, LDS=FL3, PE=FL2, FITC=FL1. A minimum of 2000-3000 events that satisfy the granulocyte gate by SSC vs. FSC and were CD16 positive by the FL2 signal were collected.
# [1] = activity threshold, read-out: IC50, inhibition of GROα-induced CD11b expression on neutrophils
# [2] = from about 3 uM to about 0.7 uM, read-out: IC50, inhibition of GROα-induced CD11b expression on neutrophils (span of the tested compounds)
pIC50 [1],pIC50 [2],SMILES
> 5.30,5.52 to 6.15,"O=C(Nc1ccc(Cl)c(S(=O)(=O)N2CC3CC2CN3)c1O)Nc1cccc(F)c1Cl (racemic) [Example 23, (+/−)-N-[4-chloro-3-(2,5-diazabicyclo[2.2.1]hept-2-ylsulfonyl)-2-hydroxyphenyl]-N′-(2-chloro-3-fluorophenyl)urea]"
> 5.30,5.52 to 6.15,"CCc1ccccc1NC(=O)Nc1ccc(Cl)c(S(=O)(=O)N2C[C@H]3C[C@@H]2CN3)c1O (stereo in doubt) [Example 12, N-{4-chloro-3-[(1R,4R)-2,5-diazabicyclo[2.2.1]hept-2-ylsulfonyl]-2-hydroxyphenyl}-N′-(2-ethylphenyl)urea]"
> 5.30,5.52 to 6.15,"O=C(Nc1ccc(Cl)c(S(=O)(=O)N2C[C@@H]3C[C@H]2CN3)c1O)Nc1cccc(F)c1Cl [Example 1, N-[4-chloro-3-[(1S,4S)-2,5-diazabicyclo[2.2.1]hept-2-ylsulfonyl]-2-hydroxyphenyl]-N′-(2-chloro-3-fluorophenyl)urea]"
> 5.30,5.52 to 6.15,"O=C(Nc1ccc(Cl)c(S(=O)(=O)N2C[C@@H]3C[C@H]2CN3CC2CC2)c1O)Nc1cccc(F)c1Cl [Example 2, N-(4-chloro-3-{[(1S,4S)-5-(cyclopropylmethyl)-2,5-diazabicyclo[2.2.1]hept-2-yl]sulfonyl}-2-hydroxyphenyl)-N′-(2-chloro-3-fluorophenyl)urea]"
> 5.30,5.52 to 6.15,"O=C(Nc1cccnc1Cl)Nc1ccc(Cl)c(S(=O)(=O)N2CCn3ccnc3C2)c1O [Example 3, N-[4-chloro-3-(5,6-dihydroimidazo[1,2-a]pyrazin-7(8H)-ylsulfonyl)-2-hydroxyphenyl]-N′-(2-chloro-3-pyridinyl)urea]"

SMILES,pIC50 [1],pIC50 [2]
"O=C(Nc1ccc(Cl)c(S(=O)(=O)N2C3CC[C@H]2CNC3)c1O)Nc1cccc(F)c1Cl (stereo in doubt) [Example 45, N-{4-chloro-3-[(1S,5S)-3,8-diazabicyclo[3.2.1]oct-8-ylsulfonyl]-2-hydroxyphenyl}-N′-(2-chloro-3-fluorophenyl)urea]",> 5.30,5.52 to 6.15
"Cc1c(F)cccc1NC(=O)Nc1ccc(Cl)c(S(=O)(=O)N2C[C@H]3CC[C@@H](C2)N3)c1O [Example 17, N-[4-chloro-3-(3,8-diazabicyclo[3.2.1]oct-3-ylsulfonyl)-2-hydroxyphenyl]-N′-(3-fluoro-2-methylphenyl)urea]",> 5.30,5.52 to 6.15
"O=C(Nc1ccccc1Oc1ccccc1)Nc1ccc(Cl)c(S(=O)(=O)N2C[C@H]3CC[C@@H](C2)N3)c1O [Example 18, N-[4-chloro-3-(3,8-diazabicyclo[3.2.1]oct-3-ylsulfonyl)-2-hydroxyphenyl]-N′-[2-(phenyloxy)phenyl]urea]",> 5.30,5.52 to 6.15
"O=C1C[C@H]2CC[C@@H](C1)N2S(=O)(=O)c1c(Cl)ccc(NC(=O)Nc2cccc3c2OC(F)(F)O3)c1O [Example 26, N-(4-chloro-2-hydroxy-3-{[(1R,5S)-3-oxo-8-azabicyclo[3.2.1]oct-8-yl]sulfonyl}phenyl)-N′-(2,2-difluoro-1,3-benzodioxol-4-yl)urea]",> 5.30,5.52 to 6.15

# Source: patent US8097626B2, “IL-8 receptor antagonists” (GlaxoSmithKline LLC, priority 2006, dated 2012)
